What was measured:
Format in all cases: biochemical
PKC alpha kinase = PKC alpha kinase (Homo sapiens, UniProt P17252); test: PKC alpha kinase inhibition, coupled-enzyme (NADH absorbance) assay, Ki; conditions: 130 μM ATP, 4.5 nM PKC alpha kinase, 30° C.
Method in brief: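 Enzyme in 100 mM HEPES pH 7.5, 10 mM MgCl2, 100 μM CaCl2, 0.01% Brij, preincubated with compound 10 min at 30 °C. Reaction started with 130 μM ATP (final); NADH consumption followed at 340 nm for 15 min at 30 °C. Ki fitted by non-linear regression of initial rates.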

PKC theta kinase = PKC theta kinase (Homo sapiens, UniProt Q04759); test: PKC theta kinase inhibition, coupled-enzyme (NADH absorbance) assay, Ki; conditions: 240 μM ATP, 18 nM PKC theta kinase, 30° C.
Sequence of PKC theta kinase (Q04759 whole entry): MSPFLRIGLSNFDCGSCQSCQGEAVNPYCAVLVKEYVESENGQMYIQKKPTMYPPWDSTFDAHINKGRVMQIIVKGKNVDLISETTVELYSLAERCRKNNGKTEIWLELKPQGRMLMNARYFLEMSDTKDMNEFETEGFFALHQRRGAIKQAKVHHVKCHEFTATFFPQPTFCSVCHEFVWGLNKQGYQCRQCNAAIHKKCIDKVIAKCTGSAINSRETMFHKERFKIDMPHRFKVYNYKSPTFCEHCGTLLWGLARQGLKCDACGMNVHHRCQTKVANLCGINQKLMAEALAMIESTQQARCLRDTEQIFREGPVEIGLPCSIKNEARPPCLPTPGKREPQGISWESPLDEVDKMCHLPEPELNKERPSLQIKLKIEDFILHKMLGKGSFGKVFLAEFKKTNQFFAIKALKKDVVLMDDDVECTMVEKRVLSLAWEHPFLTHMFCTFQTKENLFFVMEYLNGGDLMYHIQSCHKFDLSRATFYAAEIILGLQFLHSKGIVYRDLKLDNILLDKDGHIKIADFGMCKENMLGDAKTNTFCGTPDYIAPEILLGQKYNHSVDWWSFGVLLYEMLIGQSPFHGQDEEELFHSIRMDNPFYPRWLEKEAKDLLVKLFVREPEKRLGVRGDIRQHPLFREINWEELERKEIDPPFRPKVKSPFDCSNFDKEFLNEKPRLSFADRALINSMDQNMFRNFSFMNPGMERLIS
Method in brief: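 Coupled-enzyme kinase assay following NADH absorbance at 340 nm, in 100 mM HEPES pH 7.5, 10 mM MgCl2, 25 mM NaCl, 0.1 mM EDTA, 0.01% Brij. Compound in DMSO preincubated with enzyme 10 min at 30 °C. Ki from initial rates by non-linear regression.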

PKC delta kinase = PKC delta kinase (Homo sapiens, UniProt Q05655); test: PKC delta kinase inhibition, coupled-enzyme (NADH absorbance) assay, Ki; conditions: 150 μM ATP, 46 nM PKC delta kinase, 30° C.; read-out: Ki PKC delta
Sequence of PKC delta kinase (Q05655 whole entry): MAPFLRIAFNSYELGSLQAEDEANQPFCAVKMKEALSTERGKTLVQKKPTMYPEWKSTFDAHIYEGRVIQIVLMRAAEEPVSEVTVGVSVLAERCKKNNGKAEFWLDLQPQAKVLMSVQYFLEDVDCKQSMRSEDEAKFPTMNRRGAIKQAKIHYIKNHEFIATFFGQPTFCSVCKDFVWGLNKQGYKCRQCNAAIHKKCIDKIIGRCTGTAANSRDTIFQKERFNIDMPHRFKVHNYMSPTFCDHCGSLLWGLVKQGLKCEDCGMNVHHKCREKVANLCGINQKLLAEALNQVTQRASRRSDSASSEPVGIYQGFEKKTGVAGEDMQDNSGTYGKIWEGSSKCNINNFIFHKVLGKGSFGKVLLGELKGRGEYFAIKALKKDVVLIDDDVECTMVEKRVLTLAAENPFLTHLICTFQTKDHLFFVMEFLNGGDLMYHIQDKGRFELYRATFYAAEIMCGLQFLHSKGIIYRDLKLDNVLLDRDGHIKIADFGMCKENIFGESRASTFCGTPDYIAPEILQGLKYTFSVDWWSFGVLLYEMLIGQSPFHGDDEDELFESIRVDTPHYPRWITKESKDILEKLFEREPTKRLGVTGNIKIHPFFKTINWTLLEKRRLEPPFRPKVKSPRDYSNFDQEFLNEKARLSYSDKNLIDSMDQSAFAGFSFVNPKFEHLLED
Method in brief: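 PKC delta in 100 mM HEPES pH 7.5, 10 mM MgCl2, 25 mM NaCl, 0.1 mM EDTA, 0.01% Brij, equilibrated 10 min at 30° C with compound from DMSO stock. Started with ATP at 150 μM final; NADH-coupled absorbance at 340 nm followed 15 min at 30° C. Ki from initial rates by non-linear regression.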

Row | Structure (SMILES) | Ki (PKC alpha kinase) [nM] | Ki (PKC theta kinase) [nM] | Ki (PKC delta kinase) [nM]
1 | CC(C)C(O)(CF)C1CN(c2ccc(F)c(-c3n[nH]c4ncccc34)n2)CCN1 (stereo not drawn) [Compound 264] | > 1250 | < 50 | < 500
2 | CC(C)C(N)[C@H]1CCCN(c2ccc(C(F)(F)F)c(-c3n[nH]c4ncccc34)n2)C1 (stereo partly drawn) [Compound 265] | > 1250 | < 500 | < 500
3 | Fc1ccc(N2CCCCC2)nc1-c1n[nH]c2ncccc12 [Compound 266] | > 1250 | > 700 | > 1250
4 | Fc1ccc(N2CCC(F)CC2)nc1-c1n[nH]c2ncccc12 [Compound 267] | > 1250 | > 700 | > 1250
5 | Fc1ccc(N2CCC(C(F)(F)F)CC2)nc1-c1n[nH]c2ncccc12 [Compound 268] | > 1250 | > 700 | > 1250
6 | CC(C)C[C@@]1(O)CN(c2ccc(F)c(-c3n[nH]c4ncccc34)n2)CC[C@@H]1N [Compound 269] | < 500 | < 50 | < 500
7 | CC(C)C(N)[C@H]1CCCN(c2ccc(F)c(-c3n[nH]c4ncccc34)n2)C1 (stereo partly drawn) [Compound 270] | > 1250 | < 50 | > 1250
8 | C[C@](O)(c1ccccc1)[C@@H]1CN(c2ccc(F)c(-c3n[nH]c4ncccc34)n2)CCN1 [Compound 274] | > 1250 | < 500 | > 1250
9 | N#CC1CCN(c2ccc(F)c(-c3n[nH]c4ncccc34)n2)CC1 [Compound 275] | > 1250 | > 700 | > 1250
10 | CC(C)C(C)(O)[C@H]1CCCN(c2ccc(F)c(-c3n[nH]c4ncccc34)n2)C1 (stereo partly drawn) [Compound 277] | > 1250 | < 500 | > 1250
11 | CC(C)C(O)[C@@H]1CCCN(c2ccc(F)c(-c3n[nH]c4ncccc34)n2)C1 (stereo partly drawn) [Compound 278] | > 1250 | < 500 | > 1250
12 | CC(C)C(N)C1CCCN(c2ccc(F)c(-c3n[nH]c4ncccc34)n2)C1 (stereo not drawn) [Compound 280] | < 2800 | < 50 | < 500
13 | CC(C)C(N)[C@@H]1CCCN(c2ccc(F)c(-c3n[nH]c4ncccc34)n2)C1 (stereo partly drawn) [Compound 281] | > 1250 | < 50 | > 1250
14 | CC(F)(F)C(C)(O)C1CN(c2ccc(F)c(-c3n[nH]c4ncccc34)n2)CCN1 (stereo not drawn) [Compound 282] | > 1250 | < 50 | < 2800
15 | CC(F)(F)C(C)(O)C1CN(c2ccc(F)c(-c3n[nH]c4ncccc34)n2)CCN1 (stereo not drawn) [Compound 283] | < 2800 | < 1 | < 50
16 | CC(C)CC1(N)CCCN(c2ccc(F)c(-c3n[nH]c4ncccc34)n2)C1 (stereo not drawn) [Compound 284] | > 1250 | < 500 | > 1250
17 | CC(C)CC1(N)CCCN(c2ccc(C(F)(F)F)c(-c3n[nH]c4ncccc34)n2)C1 (stereo not drawn) [Compound 285] | > 1250 | < 500 | > 1250
18 | CC(F)(F)C(C)(O)C1CN(c2ccc(F)c(-c3n[nH]c4ncccc34)n2)CCN1 (stereo not drawn) [Compound 286] | > 1250 | < 50 | < 500
19 | CC(F)(F)C(C)(O)C1CN(c2ccc(F)c(-c3n[nH]c4ncccc34)n2)CCN1 (stereo not drawn) [Compound 287] | < 2800 | < 1 | < 10
20 | CC1(C)CC1(O)C1CN(c2ccc(F)c(-c3n[nH]c4ncccc34)n2)CCN1 (stereo not drawn) [Compound 288] | > 1250 | < 1 | < 500
21 | NCC1CCN(c2ccc(F)c(-c3n[nH]c4ncccc34)n2)C1 (stereo not drawn) [Compound 289] | > 1250 | < 500 | > 1250
22 | Fc1ccc(N2CCN3CCCC3C2)nc1-c1n[nH]c2ncccc12 (stereo not drawn) [Compound 290] | > 1250 | < 500 | > 1250
23 | CCC(N)C1CCCN(c2ccc(F)c(-c3n[nH]c4ncccc34)n2)C1 (stereo not drawn) [Compound 291] | < 2800 | < 50 | < 500
24 | CC(C)C(C)(N)C1CCCN(c2ccc(F)c(-c3n[nH]c4ncccc34)n2)C1 (stereo not drawn) [Compound 292] | > 1250 | < 500 | < 2800
25 | CC(C)CC1(CO)CN(c2ccc(F)c(-c3n[nH]c4ncccc34)n2)CCC1N (stereo not drawn) [Compound 293] | < 500 | < 50 | < 50
26 | NC1CCCN(c2ccc(F)c(-c3n[nH]c4ncccc34)n2)C1 (stereo not drawn) [Compound 294] | > 1250 | < 500 | > 1250
27 | CC(C)CC1(O)CCCN(c2ccc(F)c(-c3n[nH]c4ncccc34)n2)C1 (stereo not drawn) [Compound 295] | > 1250 | < 2800 | > 1250

— patent US9193722B2, “Tri-cyclic pyrazolopyridine kinase inhibitors” (Vertex Pharmaceuticals Incorporated, priority 2008, dated 2015)
